Consider six compounds from ChEMBL document CHEMBL5291721, “A preclinical secondary pharmacology resource illuminates target-adverse drug reaction associations of marketed drugs” (Nat Commun, 2023).

One test concerns the target Vasopressin V2 receptor (Homo sapiens, UniProt P30518).
The target of test [1] is Vascular endothelial growth factor receptor 2 (Homo sapiens, UniProt P35968). The test is classed as functional.
Test [2] addresses 3',5'-cyclic-AMP phosphodiesterase 4A (Homo sapiens, UniProt P27815). The test is classed as functional.
The target of the next test is Prothrombin (Homo sapiens, UniProt P00734). The test is classed as functional.
In test [3] the target is Voltage-dependent L-type calcium channel subunit alpha-1C (Rattus norvegicus, UniProt P22002). Type of test: functional.
Test [4] has as its target Prostaglandin G/H synthase 1 (Homo sapiens, UniProt P23219). Type of test: functional.
The target in test [5] is Sodium-dependent noradrenaline transporter (Homo sapiens, UniProt P23975).
Chain of Sodium-dependent noradrenaline transporter (P23975 whole entry): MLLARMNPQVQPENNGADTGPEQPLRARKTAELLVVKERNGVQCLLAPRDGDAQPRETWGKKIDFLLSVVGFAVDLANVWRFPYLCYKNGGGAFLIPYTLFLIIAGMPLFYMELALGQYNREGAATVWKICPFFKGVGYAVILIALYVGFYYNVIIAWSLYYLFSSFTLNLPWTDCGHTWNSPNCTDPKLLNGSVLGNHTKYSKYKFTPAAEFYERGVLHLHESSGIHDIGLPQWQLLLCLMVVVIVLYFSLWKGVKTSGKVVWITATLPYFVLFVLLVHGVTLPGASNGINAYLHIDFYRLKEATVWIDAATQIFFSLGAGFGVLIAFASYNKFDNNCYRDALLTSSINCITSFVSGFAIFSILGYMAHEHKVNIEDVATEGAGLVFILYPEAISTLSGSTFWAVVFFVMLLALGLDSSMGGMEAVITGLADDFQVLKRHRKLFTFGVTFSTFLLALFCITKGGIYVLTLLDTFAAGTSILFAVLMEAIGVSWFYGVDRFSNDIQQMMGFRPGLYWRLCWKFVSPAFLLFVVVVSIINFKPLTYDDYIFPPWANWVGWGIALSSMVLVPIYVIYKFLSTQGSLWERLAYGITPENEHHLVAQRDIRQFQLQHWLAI
In test [6] the target is T1, Progesterone receptor (Homo sapiens, UniProt P06401).
T1 sequence (P06401 whole entry): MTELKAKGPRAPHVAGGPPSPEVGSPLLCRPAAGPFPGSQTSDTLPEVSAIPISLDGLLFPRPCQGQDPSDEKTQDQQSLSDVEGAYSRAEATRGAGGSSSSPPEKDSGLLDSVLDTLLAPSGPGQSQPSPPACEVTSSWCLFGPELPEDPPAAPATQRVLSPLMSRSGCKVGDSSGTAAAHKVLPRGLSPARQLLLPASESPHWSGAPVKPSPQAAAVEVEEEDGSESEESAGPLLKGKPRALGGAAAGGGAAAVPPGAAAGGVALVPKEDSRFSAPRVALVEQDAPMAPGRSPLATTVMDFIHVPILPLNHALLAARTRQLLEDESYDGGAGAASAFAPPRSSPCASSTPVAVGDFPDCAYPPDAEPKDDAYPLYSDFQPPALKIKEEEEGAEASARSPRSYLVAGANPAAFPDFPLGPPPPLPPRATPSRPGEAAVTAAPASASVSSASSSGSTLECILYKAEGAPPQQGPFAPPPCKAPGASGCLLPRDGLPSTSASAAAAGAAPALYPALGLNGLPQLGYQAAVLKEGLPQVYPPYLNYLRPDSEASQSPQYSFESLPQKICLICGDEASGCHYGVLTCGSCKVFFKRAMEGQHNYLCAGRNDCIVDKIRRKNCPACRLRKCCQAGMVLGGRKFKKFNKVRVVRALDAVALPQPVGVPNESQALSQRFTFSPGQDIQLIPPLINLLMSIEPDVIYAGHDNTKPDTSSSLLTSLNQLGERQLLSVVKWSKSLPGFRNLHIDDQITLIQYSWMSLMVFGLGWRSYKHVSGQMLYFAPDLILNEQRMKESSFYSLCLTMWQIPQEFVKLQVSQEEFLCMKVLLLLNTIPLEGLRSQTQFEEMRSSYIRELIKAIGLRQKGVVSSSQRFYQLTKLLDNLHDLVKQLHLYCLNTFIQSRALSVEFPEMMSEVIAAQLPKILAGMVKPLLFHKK

The target of a further test is Cannabinoid receptor 1 (Homo sapiens, UniProt P21554). The test is classed as functional, cell-based.
Chain of Cannabinoid receptor 1 (P21554 whole entry): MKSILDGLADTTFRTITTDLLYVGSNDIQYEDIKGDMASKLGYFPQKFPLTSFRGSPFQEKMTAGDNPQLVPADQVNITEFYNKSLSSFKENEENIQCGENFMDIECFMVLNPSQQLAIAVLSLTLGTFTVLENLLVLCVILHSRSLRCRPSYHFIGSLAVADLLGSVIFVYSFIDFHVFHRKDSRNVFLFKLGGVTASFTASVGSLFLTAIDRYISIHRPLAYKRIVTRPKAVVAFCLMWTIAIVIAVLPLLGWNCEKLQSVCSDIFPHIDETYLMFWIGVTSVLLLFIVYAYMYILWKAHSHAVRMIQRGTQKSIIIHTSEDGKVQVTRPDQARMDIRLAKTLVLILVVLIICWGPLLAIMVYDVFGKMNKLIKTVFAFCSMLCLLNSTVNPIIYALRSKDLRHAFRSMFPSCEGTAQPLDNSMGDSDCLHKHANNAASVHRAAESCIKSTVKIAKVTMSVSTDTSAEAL
The next test concerns the target T2, Estrogen receptor (Homo sapiens, UniProt P03372).
T2 sequence (P03372 whole entry): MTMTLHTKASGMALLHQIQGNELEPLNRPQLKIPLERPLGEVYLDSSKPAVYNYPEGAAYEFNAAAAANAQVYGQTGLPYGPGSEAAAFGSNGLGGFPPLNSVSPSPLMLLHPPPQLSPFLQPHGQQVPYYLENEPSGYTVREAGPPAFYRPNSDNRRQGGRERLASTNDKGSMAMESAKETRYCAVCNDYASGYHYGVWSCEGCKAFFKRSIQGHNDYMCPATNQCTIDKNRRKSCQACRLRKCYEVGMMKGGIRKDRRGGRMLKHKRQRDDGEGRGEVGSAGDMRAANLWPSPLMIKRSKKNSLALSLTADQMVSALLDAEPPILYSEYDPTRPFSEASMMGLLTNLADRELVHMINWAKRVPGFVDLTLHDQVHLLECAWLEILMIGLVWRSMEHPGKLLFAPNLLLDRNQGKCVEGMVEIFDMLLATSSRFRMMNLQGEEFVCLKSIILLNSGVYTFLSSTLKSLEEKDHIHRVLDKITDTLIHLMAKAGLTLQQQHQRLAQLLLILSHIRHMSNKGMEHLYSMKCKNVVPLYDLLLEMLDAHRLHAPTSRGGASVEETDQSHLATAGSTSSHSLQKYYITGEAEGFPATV

Test [7] concerns the target 5-hydroxytryptamine receptor 2B (Homo sapiens, UniProt P41595). The test is classed as functional, cell-based.
For test [8], the target named is Beta-2 adrenergic receptor (Homo sapiens, UniProt P07550).
Chain of Beta-2 adrenergic receptor (P07550 whole entry): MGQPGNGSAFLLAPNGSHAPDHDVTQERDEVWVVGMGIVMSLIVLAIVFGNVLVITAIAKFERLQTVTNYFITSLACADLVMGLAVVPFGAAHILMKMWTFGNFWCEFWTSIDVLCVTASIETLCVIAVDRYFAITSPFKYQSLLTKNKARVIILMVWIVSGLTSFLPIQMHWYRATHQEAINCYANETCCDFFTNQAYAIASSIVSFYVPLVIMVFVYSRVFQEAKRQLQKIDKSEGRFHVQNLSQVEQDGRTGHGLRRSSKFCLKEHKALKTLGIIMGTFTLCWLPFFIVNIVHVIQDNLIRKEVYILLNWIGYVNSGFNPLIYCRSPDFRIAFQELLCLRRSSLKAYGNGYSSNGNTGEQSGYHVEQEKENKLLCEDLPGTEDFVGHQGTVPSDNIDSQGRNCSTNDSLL
The target in the next test is Melanocortin receptor 4 (Homo sapiens, UniProt P32245).
Chain of Melanocortin receptor 4 (P32245 whole entry): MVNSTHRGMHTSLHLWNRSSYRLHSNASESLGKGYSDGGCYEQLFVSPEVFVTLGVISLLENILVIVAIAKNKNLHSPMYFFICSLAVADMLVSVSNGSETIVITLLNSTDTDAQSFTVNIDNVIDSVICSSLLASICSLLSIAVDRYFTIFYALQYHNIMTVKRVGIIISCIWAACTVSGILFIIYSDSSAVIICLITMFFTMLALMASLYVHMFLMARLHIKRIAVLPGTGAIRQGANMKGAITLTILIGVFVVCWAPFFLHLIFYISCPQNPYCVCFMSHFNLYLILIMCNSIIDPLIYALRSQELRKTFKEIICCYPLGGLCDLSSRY
Test [9] concerns the target Glutamate receptor ionotropic, NMDA 1 (Rattus norvegicus, UniProt P35439).
Test [10] has as its target T1, Progesterone receptor. The test is classed as functional.
Test [11] addresses 5-hydroxytryptamine receptor 2A (Homo sapiens, UniProt P28223). Type of test: functional, cell-based.
Test [12] has as its target T3, Alpha-2B adrenergic receptor (Homo sapiens, UniProt P18089).
T3 sequence (P18089 whole entry): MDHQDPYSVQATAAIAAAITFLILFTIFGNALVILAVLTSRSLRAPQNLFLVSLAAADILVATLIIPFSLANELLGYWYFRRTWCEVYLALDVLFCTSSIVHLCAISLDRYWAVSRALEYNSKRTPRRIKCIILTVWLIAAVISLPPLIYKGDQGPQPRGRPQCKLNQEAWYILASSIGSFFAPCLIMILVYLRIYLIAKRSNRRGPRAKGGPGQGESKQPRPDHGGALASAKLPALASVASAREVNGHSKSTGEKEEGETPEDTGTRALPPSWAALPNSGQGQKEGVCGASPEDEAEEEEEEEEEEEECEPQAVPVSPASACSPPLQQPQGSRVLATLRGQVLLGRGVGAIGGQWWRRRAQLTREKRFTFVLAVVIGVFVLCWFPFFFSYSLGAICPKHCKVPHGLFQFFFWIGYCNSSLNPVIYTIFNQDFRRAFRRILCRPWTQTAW
Note: assay procedure not described here.

Chain of Vascular endothelial growth factor receptor 2 (P35968 whole entry): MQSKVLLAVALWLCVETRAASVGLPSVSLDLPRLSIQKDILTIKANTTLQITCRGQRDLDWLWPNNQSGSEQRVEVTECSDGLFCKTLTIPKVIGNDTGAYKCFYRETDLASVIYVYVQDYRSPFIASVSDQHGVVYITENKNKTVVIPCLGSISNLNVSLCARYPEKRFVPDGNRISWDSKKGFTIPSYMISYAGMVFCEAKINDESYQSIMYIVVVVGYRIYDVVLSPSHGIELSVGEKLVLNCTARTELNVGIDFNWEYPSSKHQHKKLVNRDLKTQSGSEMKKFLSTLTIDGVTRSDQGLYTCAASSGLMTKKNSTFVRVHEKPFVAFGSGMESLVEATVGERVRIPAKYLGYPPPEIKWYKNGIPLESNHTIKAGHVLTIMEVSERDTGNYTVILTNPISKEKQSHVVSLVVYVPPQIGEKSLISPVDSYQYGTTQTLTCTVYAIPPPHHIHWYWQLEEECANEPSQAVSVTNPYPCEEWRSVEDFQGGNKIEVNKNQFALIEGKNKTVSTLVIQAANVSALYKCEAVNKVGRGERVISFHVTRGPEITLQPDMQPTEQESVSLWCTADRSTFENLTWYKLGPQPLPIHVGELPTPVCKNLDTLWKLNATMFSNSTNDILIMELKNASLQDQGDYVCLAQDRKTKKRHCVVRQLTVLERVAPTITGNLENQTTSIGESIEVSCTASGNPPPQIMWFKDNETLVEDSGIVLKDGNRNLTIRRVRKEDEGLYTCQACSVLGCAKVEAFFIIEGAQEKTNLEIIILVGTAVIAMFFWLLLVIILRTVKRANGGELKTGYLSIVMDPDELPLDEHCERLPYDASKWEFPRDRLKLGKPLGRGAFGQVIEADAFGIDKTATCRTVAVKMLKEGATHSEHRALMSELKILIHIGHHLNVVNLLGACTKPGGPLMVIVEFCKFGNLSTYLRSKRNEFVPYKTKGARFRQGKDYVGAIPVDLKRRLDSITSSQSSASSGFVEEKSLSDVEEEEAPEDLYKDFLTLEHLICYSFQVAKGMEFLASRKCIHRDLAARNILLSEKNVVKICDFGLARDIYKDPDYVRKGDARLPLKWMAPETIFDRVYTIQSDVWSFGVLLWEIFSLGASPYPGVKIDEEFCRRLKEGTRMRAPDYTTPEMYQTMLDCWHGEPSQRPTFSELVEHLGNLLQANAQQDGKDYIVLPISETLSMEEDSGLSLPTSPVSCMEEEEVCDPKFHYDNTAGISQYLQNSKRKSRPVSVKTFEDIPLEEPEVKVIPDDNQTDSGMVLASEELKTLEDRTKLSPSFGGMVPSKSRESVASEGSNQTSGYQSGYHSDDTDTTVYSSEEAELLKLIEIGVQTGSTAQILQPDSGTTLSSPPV
Chain of Prostaglandin G/H synthase 1 (P23219 whole entry): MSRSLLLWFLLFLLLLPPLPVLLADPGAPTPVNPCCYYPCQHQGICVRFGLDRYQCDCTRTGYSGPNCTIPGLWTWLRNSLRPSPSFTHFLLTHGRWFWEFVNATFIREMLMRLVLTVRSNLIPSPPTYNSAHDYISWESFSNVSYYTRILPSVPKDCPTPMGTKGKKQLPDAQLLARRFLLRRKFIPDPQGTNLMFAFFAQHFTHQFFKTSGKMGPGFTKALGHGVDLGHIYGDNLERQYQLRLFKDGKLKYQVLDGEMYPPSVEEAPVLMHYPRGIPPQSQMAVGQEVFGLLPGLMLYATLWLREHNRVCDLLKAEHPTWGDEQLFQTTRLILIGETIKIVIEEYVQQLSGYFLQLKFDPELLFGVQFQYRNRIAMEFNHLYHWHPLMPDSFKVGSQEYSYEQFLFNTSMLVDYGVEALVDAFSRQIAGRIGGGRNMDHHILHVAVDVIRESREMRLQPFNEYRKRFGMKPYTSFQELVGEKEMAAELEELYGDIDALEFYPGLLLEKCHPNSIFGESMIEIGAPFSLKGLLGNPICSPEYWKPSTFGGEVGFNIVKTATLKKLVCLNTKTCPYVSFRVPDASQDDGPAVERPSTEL
Chain of 3',5'-cyclic-AMP phosphodiesterase 4A (P27815 whole entry): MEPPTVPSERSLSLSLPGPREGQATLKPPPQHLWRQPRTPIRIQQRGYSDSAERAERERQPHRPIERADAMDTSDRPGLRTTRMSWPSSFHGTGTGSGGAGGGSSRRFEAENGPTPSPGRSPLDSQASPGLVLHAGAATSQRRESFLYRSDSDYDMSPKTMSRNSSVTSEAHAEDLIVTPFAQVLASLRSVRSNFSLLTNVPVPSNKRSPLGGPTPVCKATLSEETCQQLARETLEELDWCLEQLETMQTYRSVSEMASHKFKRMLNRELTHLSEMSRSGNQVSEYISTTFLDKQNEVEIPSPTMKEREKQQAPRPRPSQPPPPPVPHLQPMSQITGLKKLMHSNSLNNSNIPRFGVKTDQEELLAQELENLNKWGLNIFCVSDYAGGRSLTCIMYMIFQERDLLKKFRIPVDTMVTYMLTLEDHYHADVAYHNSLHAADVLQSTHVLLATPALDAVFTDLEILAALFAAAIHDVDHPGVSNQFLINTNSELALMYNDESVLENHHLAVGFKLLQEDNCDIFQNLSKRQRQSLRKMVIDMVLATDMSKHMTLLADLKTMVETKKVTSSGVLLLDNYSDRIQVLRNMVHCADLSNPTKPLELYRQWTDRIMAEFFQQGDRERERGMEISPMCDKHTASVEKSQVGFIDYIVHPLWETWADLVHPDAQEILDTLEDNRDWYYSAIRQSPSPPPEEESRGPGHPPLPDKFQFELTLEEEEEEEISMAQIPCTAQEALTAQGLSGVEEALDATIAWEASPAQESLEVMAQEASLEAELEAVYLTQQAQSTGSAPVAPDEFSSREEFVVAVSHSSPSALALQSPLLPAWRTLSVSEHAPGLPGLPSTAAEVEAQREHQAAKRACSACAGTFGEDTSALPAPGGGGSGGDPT
Chain of Vasopressin V2 receptor (P30518 whole entry): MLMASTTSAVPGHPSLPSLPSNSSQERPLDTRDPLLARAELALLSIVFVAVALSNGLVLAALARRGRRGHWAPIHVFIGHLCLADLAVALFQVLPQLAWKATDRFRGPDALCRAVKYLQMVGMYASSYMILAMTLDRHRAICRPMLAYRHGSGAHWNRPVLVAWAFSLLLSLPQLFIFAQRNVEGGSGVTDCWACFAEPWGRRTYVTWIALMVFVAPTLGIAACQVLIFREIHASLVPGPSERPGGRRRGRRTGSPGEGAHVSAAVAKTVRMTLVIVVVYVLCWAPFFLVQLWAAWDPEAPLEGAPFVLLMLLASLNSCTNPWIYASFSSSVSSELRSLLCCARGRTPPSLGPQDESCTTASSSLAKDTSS

In the case of `CCOC(=O)[C@H](CCc1ccccc1)N[C@@H](C)C(=O)N1Cc2ccccc2C[C@H]1C(=O)O`, the concentration at half-maximal activity (AC50) on Vasopressin V2 receptor is over 30 µM; in test [1], over 30 µM; in [2], over 30 µM; on Prothrombin, over 30 µM; in test [3] it was over 10 µM; in test [4], over 30 µM. For the same compound, the AC50 in test [5] is over 30 µM; on Progesterone receptor [6], over 30 µM; at Cannabinoid receptor 1, over 30 µM; on Estrogen receptor, over 30 µM; in test [7], over 30 µM; in test [8], over 10 µM. Moreover, the AC50 on Melanocortin receptor 4 was over 30 µM; in test [9], over 10 µM.
As to `CN(C)CCC=C1c2ccccc2CCc2ccccc21` [AMITRIPTYLINE], the AC50 at Vasopressin V2 receptor is over 30 µM; in test [1], over 30 µM; in test [2], over 30 µM; on Prothrombin it was over 30 µM; in test [3], over 10 µM; in test [4], over 30 µM. The concentration at half-maximal activity (AC50) on Progesterone receptor [6] is over 30 µM; at Progesterone receptor [10], over 30 µM; at Cannabinoid receptor 1, over 30 µM; on Estrogen receptor it was over 30 µM; in test [8], 21.1 µM; at Melanocortin receptor 4 it was 17.7 µM. In test [9], this compound displayed a half-maximal activity concentration (AC50) of over 10 µM.
Turning to `CC(=O)Oc1ccccc1C(=O)O` [ASPIRIN], the AC50 on Vasopressin V2 receptor was over 30 µM; in test [1], over 30 µM; in test [2], over 30 µM; at Prothrombin it was over 30 µM; in [3], over 10 µM; in [5], over 30 µM. Also, the half-maximal activity concentration (AC50) at Progesterone receptor [6] is over 30 µM; at Cannabinoid receptor 1, over 30 µM; on Estrogen receptor, over 30 µM; in [7] it was over 30 µM; in [8] it was over 10 µM; at Melanocortin receptor 4, over 30 µM. The AC50 in test [9] was over 10 µM.
Turning to `CN(C)CCCC1(c2ccc(F)cc2)OCc2cc(C#N)ccc21` (stereo unspecified) [CITALOPRAM], the AC50 was over 30 µM on Vasopressin V2 receptor; over 30 µM in test [1]; over 30 µM in [2]; over 30 µM on Prothrombin; over 10 µM in [3]; over 30 µM in test [4]. Also, the half-maximal activity concentration (AC50) at Progesterone receptor [6] is over 30 µM; at Cannabinoid receptor 1, over 30 µM; at Estrogen receptor it was over 30 µM; in test [7], over 30 µM; in [8], over 10 µM; on Melanocortin receptor 4 it was over 30 µM. Also, in test [9], the concentration at half-maximal activity (AC50) is over 10 µM.
In the case of `CN(C)CCN(Cc1ccccc1)c1ccccn1` [TRIPELENNAMINE], the half-maximal activity concentration (AC50) on Vasopressin V2 receptor is over 10 µM; in test [1], over 30 µM; in [2] it was over 30 µM; in test [11], over 10 µM; on Prothrombin, over 30 µM; in test [3], over 10 µM. In addition, the half-maximal activity concentration (AC50) in test [4] is over 30 µM; in [5] it was 2.62 µM; on Estrogen receptor, over 30 µM; in test [12], 11 µM; in test [7] it was over 30 µM; in test [8], over 30 µM. Also, the AC50 (on Melanocortin receptor 4; in test [9]) was over 10 µM throughout.
For the compound `Cc1c(C)c2c(c(C)c1O)CCC(C)(COc1ccc(CC3SC(=O)NC3=O)cc1)O2` (stereo unspecified) [TROGLITAZONE], the concentration at half-maximal activity (AC50) on Vasopressin V2 receptor is over 30 µM; in test [1], over 30 µM; in [2] it was 4.9 µM; at Prothrombin, over 30 µM; in test [3], 21 µM; in [4] it was over 30 µM. Also, the half-maximal activity concentration (AC50) in [5] was 4.11 µM; on Progesterone receptor [6], 3.55 µM; at Progesterone receptor [10] it was over 30 µM; at Cannabinoid receptor 1, over 30 µM; at Estrogen receptor, over 30 µM; in test [7], over 30 µM. Besides, the concentration at half-maximal activity (AC50) (on Melanocortin receptor 4; in [9]) was over 30 µM each time.

For orientation: AC50 means the midpoint of the concentration-response curve, whichever way the signal moves.
